# Values quoted from earlier work as cited in patent US7517878B2, “Heteroarylaminopyrazole derivatives useful for the treatment of diabetes” (Bayer Pharamceuticals Corporation, priority 2004, dated 2009).
# Tested on: INS-1 cells
# Conditions: INS-1 cells maintained in the presence of beta-mercaptoethanol; Hohmeier, et al., Diabetes 49:424, 2002; read-out: EC50 of insulin secretion in response to glucose
compound,measurement,value
O=C[C@H](O)[C@@H](O)[C@H](O)[C@H](O)CO [glucose],EC50,6 mM
